13 compounds from US20260274892A1, “MACROCYCLIC BROAD SPECTRUM ANTIBIOTICS” (RQx Pharmaceuticals, Inc., priority 2017, published 2026) can be followed below.

Assay [1] concerns Methicillin Resistant Staphylococcus aureus strain USA 200. The assay can be described thus: Minimum inhibitory concentration (MIC), CLSI broth micro-dilution, S. aureus. The class given is cell-based. The settings on record: MRSA USA 200, cation adjusted Mueller Hinton Broth + 0.002% Tween-80, 35° C., 22 hours. The method in brief:
(§1)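 Colonies grown 20 h at 35° C on Trypticase Soy agar (MRSA) or Luria agar (E. coli) were suspended in cation-adjusted Mueller Hinton broth with 0.002% Tween-80. Suspensions were added at OD600 0.0005 to 10-point twofold compound dilutions, then incubated 22 h at 35° C.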

Assay [2] deals with Escherichia coli ATCC 25922. The assay can be described thus: Minimum inhibitory concentration (MIC), CLSI broth micro-dilution, E. coli. The class given is cell-based. The method in brief: as §1
(Dilution methods test growth across graded concentrations, often in twofold steps.)

Where [3] appears, read: Staphylococcus aureus, MRSA / USA200, Table 6.
The mark [4] stands for this setting: Escherichia coli, ATCC25922, 22 h, Table 6, cation adjusted Mueller Hinton Broth + 0.002% Tween-80, 35° C.

What is called MIC is the least concentration at which growth counts as inhibited. Consider `Cc1nc(-c2ccc(C(C)(C)C)cc2)nc(C(C)C)c1C(=O)N[C@@H](CCN)C(=O)N(C)[C@@H]1C(=O)N[C@@H](C)C(=O)N[C@H](C(=O)NCC#N)Cc2ccc(OCCN)c(c2)-c2cc1ccc2OCCN` [Compound 487], for which the MIC was determined as 0.016 µM in assay [1] (setting [3]) and 0.38 µM in assay [2] (setting [4]).

With `CCC/C=C/c1ccc(-c2nc(C)c(C(=O)N[C@@H](CCN)C(=O)N(C)[C@@H]3C(=O)N[C@@H](C)C(=O)N[C@H](C(=O)NCC#N)Cc4ccc(OCCN)c(c4)-c4cc3ccc4OCCN)c(C)n2)cc1` (racemic) [Compound 278, rac-(8S,11S,14S)-3,18-bis(2-aminoethoxy)-N-(cyanomethyl)-11-methyl-14-[methyl-[rac-(2S)-4-amino-2-[[4,6-dimethyl-2-[4-[rac-(E)-pent-1-enyl]phenyl]pyrimidine-5-carbonyl]amino]butanoyl]amino]-10,13-dioxo-9,12-diazatricyclo[13.3.1.12,6]icosa-1(18),2(20),3,5,15(19),16-hexaene-8-carboxamide], the minimal inhibitory concentration (MIC) in assay [1] (setting [3]) was 0.0078 µM; in assay [2] (setting [4]) it was 0.094 µM.

As for `Cc1nc(-c2ccc(N3CCCC3)cc2)nc(C)c1C(=O)N[C@@H](CCN)C(=O)N(C)[C@@H]1C(=O)N[C@@H](C)C(=O)N[C@H](C(=O)NCC#N)Cc2ccc(OCCN)c(c2)-c2cc1ccc2OCCN` (racemic) [Compound 321, rac-(8S,11S,14S)-3,18-bis(2-aminoethoxy)-N-(cyanomethyl)-11-methyl-14-[methyl-[rac-(2S)-4-amino-2-[[4,6-dimethyl-2-(4-pyrrolidin-1-ylphenyl)pyrimidine-5-carbonyl]amino]butanoyl]amino]-10,13-dioxo-9,12-diazatricyclo[13.3.1.12,6]icosa-1(18),2(20),3,5,15(19),16-hexaene-8-carboxamide], the minimum inhibitory concentration (MIC) in assay [1] (setting [3]) is 0.047 µM; in assay [2] (setting [4]), 0.38 µM.

As to `Cc1nc(-c2ccc(C(C)(C)C)cc2)nc(C)c1C(=O)N[C@@H](CCN)C(=O)N(C)[C@@H]1C(=O)N[C@@H](C)C(=O)N[C@H](C(=O)O)Cc2ccc(OCCN)c(c2)-c2cc1ccc2OCCN` (racemic) [Compound 645, rac-(8S,11S,14S)-3,18-bis(2-aminoethoxy)-11-methyl-14-[methyl-[rac-(2S)-4-amino-2-[[2-(4-tert-butylphenyl)-4,6-dimethyl-pyrimidine-5-carbonyl]amino]butanoyl]amino]-10,13-dioxo-9,12-diazatricyclo [13.3.1.12,6]icosa-1(18),2(20),3,5,15(19), 16-hexaene-8-carboxylic acid], the MIC in assay [1] (Staphylococcus aureus, MRSA / USA200, Table 8) came to 0.52 µM; in assay [2] (Escherichia coli, ATCC25922, 22 h, Table 8, cation adjusted Mueller Hinton Broth + 0.002% Tween-80, 35° C.) it was 0.4 µM.

Turning to `Cc1nc(C#CC(C)C)ncc1C(=O)N[C@@H](CCN)C(=O)N(C)[C@@H]1C(=O)N[C@@H](C)C(=O)N[C@H](C(=O)NCC#N)Cc2ccc(OCCN)c(c2)-c2cc1ccc2OCCN` (racemic) [Compound 229, rac-(8S,11S,14S)-3,18-bis(2-aminoethoxy)-N-(cyanomethyl)-11-methyl-14-[methyl-[rac-(2S)-4-amino-2-[[4-methyl-2-(3-methylbut-l-ynyl)pyrimidine-5-carbonyl]amino]butanoyl]amino]-10,13-dioxo-9,12-diazatricyclo[13.3.1.12,6]icosa-1(18),2(20),3,5,15(19),16-hexaene-8-carboxamide], the minimum inhibitory concentration (MIC) came to 0.57 µM in assay [1] (Table 6) and 4.6 µM in assay [2] (Table 6, cation adjusted Mueller Hinton Broth + 0.002% Tween-80, 35° C., 22 hours).

In the case of `Cc1nc(-c2ccc(C(C)(C)C)cc2)ncc1C(=O)N[C@@H](CCN)C(=O)N(C)[C@@H]1C(=O)N[C@@H](C)C(=O)N[C@H](C(=O)NCC#N)Cc2ccc(OCCN)c(c2)-c2cc1ccc2O` (racemic) [Compound 549, rac-(8S,11S,14S)-3-(2-aminoethoxy)-N-(cyanomethyl)-18-hydroxy-11-methyl-14-[methyl-[rac-(2S)-4-amino-2-[[2-(4-tert-butylphenyl)-4-methyl-pyrimidine-5-carbonyl]amino]butanoyl]amino]-10,13-dioxo-9,12-diazatricyclo[13.3.1.12,6]icosa-1(18),2(20),3,5,15(19),16-hexaene-8-carboxamide], the results for the minimal inhibitory concentration (MIC) in assay [1] (setting [3]) and in assay [2] (setting [4]) were 0.035 µM and 0.21 µM, respectively.

Regarding `CCCCOc1ccc(-c2nc(C)c(C(=O)N[C@@H](CCN)C(=O)N(C)[C@@H]3C(=O)N[C@@H](C)C(=O)N[C@H](C(=O)NCC#N)Cc4ccc(OCCN)c(c4)-c4cc3ccc4OCCN)c(C)n2)cc1` (racemic) [Compound 331, rac-(8S,11S,14S)-3,18-bis(2-aminoethoxy)-N-(cyanomethyl)-11-methyl-14-[methyl-[rac-(2S)-4-amino-2-[[2-(4-butoxyphenyl)-4,6-dimethyl-pyrimidine-5-carbonyl]amino]butanoyl]amino]-10,13-dioxo-9,12-diazatricyclo[13.3.1.12,6]icosa-1(18),2(20),3,5,15(19),16-hexaene-8-carboxamide], the MIC was found to be 0.0081 µM in assay [1] (setting [3]) and 0.13 µM in assay [2] (setting [4]).

On to `Cc1nc(-c2ccc(C(C)(C)C)cc2)ncc1C(=O)N[C@@H](CCO)C(=O)N(C)[C@@H]1C(=O)N[C@@H](C)C(=O)N[C@H](C(=O)NCC#N)Cc2ccc(OCCN)c(c2)-c2cc1ccc2OCCN` (racemic) [Compound 459, rac-(8S,11S,14S)-3,18-bis(2-aminoethoxy)-N-(cyanomethyl)-11-methyl-14-[methyl-[rac-(2S)-2-[[2-(4-tert-butylphenyl)-4-methyl-pyrimidine-5-carbonyl]amino]-4-hydroxy-butanoyl]amino]-10,13-dioxo-9,12-diazatricyclo[13.3.1.12,6]icosa-1(18),2(20),3,5,15(19),16-hexaene-8-carboxamide], for which the MIC stood at 0.083 µM in assay [1] (setting [3]) and 0.71 µM in assay [2] (setting [4]).

Consider `Cc1nc(-c2ccc(C(C)(C)C)cc2)c([N+](=O)[O-])cc1C(=O)N[C@@H](CCN)C(=O)N(C)[C@@H]1C(=O)N[C@@H](C)C(=O)N[C@H](C(=O)NCC#N)Cc2ccc(OCCN)c(c2)-c2cc1ccc2OCCN` (racemic) [Compound 406, rac-(8S,11S,14S)-3,18-bis(2-aminoethoxy)-N-(cyanomethyl)-11-methyl-14-[methyl-[rac-(2S)-4-amino-2-[[6-(4-tert-butylphenyl)-2-methyl-5-nitro-pyridine-3-carbonyl]amino]butanoyl]amino]-10,13-dioxo-9,12-diazatricyclo[13.3.1.12,6]icosa-1(18),2(20),3,5,15(19),16-hexaene-8-carboxamide], for which the MIC in assay [1] (setting [3]) was found to be 0.023 µM; in assay [2] (setting [4]) it was 0.25 µM.

Turning to `Cc1nc(-c2ccc(C(C)(C)C)cc2)ncc1C(=O)N[C@@H](CCN)C(=O)N(C)[C@@H]1C(=O)NCC(=O)N[C@H](C(=O)NCC#N)Cc2ccc(OCCN)c(c2)-c2cc1ccc2OCCN` (racemic) [Compound 476, rac-(8S,14S)-3,18-bis(2-aminoethoxy)-N-(cyanomethyl)-14-[methyl-[rac-(2S)-4-amino-2-[[2-(4-tert-butylphenyl)-4-methyl-pyrimidine-5-carbonyl]amino]butanoyl]amino]-10,13-dioxo-9,12-diazatricyclo[13.3.1.12,6]icosa-1(18),2(20),3,5,15(19),16-hexaene-8-carboxamide], the values for the minimum inhibitory concentration (MIC) in assay [1] (setting [3]) and in assay [2] (setting [4]) were 0.025 µM and 1.1 µM, respectively.

Take `CCC(=Cc1ccc(-c2nc(C)c(C(=O)N[C@@H](CCN)C(=O)N(C)[C@@H]3C(=O)N[C@@H](C)C(=O)N[C@H](C(=O)NCC#N)Cc4ccc(OCCN)c(c4)-c4cc3ccc4OCCN)c(C)n2)cc1)CC` (racemic) [Compound 276, rac-(8S,11S,14S)-3,18-bis(2-aminoethoxy)-N-(cyanomethyl)-11-methyl-14-[methyl-[rac-(2S)-4-amino-2-[[2-[4-(2-ethylbut-1-enyl)phenyl]-4,6-dimethyl-pyrimidine-5-carbonyl]amino]butanoyl]amino]-10,13-dioxo-9,12-diazatricyclo[13.3.1.12,6]icosa-1(18),2(20),3,5,15(19),16-hexaene-8-carboxamide]: the MIC in assay [1] (setting [3]) stood at 0.016 µM; in assay [2] (setting [4]), 0.063 µM.

Take `C[C@@H]1NC(=O)[C@@H](N(C)C(=O)[C@H](CCN)NC(=O)[C@H]2CC[C@@H](c3ccc(C(C)(C)C)cc3)CC2)c2ccc(OCCN)c(c2)-c2cc(ccc2OCCN)C[C@@H](C(=O)NCC#N)NC1=O` [Compound 392, rac-(8S,11S,14S)-3,18-bis(2-aminoethoxy)-N-(cyanomethyl)-11-methyl-14-[methyl-[rac-(2S)-4-amino-2-[[4-(4-tert-butylphenyl)cyclohexanecarbonyl]amino]butanoyl]amino]-10,13-dioxo-9,12-diazatricyclo[13.3.1.12,6]icosa-1(18),2(20),3,5,15(19),16-hexaene-8-carboxamide]: the values for the minimal inhibitory concentration (MIC) in assay [1] (setting [3]) and in assay [2] (setting [4]) were 0.063 µM and 3 µM, respectively.

In the case of `Cc1nc(-c2ccc(OC3CCCCC3)cc2)nc(C)c1C(=O)N[C@@H](CCO)C(=O)N(C)[C@@H]1C(=O)N[C@@H](C)C(=O)N[C@H](C(=O)NCC#N)Cc2ccc(OCCN)c(c2)-c2cc1ccc2OCCN` [Compound 509, (8S,11S,14S)-3,18-bis(2-aminoethoxy)-N-(cyanomethyl)-14-[[(2S)-2-[[2-[4-(cyclohexoxy)phenyl]-4,6-dimethyl-pyrimidine-5-carbonyl]amino]-4-hydroxy-butanoyl]-methyl-amino]-11-methyl-10,13-dioxo-9,12-diazatricyclo[13.3.1.12,6]icosa-1(18),2(20),3,5,15(19),16-hexaene-8-carboxamide], the minimum inhibitory concentration (MIC) came to 0.047 µM in assay [1] (setting [3]) and 0.5 µM in assay [2] (setting [4]).
